Patent US11517598B2 (priority 2016, dated 2022)

System: cytokine, chemokine and IFN stimulated gene expression in 786-0 cells
Assay type: cell-based, human

With Sodium orthovanadate the “CXCL9 mRNA up-regulation” value was “more than 100,000 fold”, the “IFNβ mRNA up-regulation” value was “more than 10 fold” and the IFNγ expression was “not up-regulated at any time-point post infection under any condition tested”. For the same substance, the “MX2 and IFITM1 mRNA” value was “robustly downregulated as early as 8 h post-infection”, the “expression of proinflammatory cytokines (CCL8, CCL3, IL6, TNF, IFNβ, CCL5) and type II IFN induced genes (CXCL9, CXCL10, CXCL11)” value was “increased expression of a number of proinflammatory cytokines” and the “genes typically induced by Type I IFN” value was “either unaffected or decreased”.
